We go through 13 compounds from patent US8906925B2, “Pyrido[4,3-B]indoles containing rigid moieties” (Medivation Technologies, Inc., priority 2008, dated 2014).

Broadly, the inhibition is the relative decrease from the control value, in per cent.

Experiment [1] addresses T1, human recombinant serotonin (5-Hydroxytryptamine) 5-HT2C receptor (Homo sapiens, UniProt P28335).
T1 construct: expressed in transfected cells; host or cells: Chinese hamster ovary (CHO-K1) cells
T1 sequence (P28335 33-458): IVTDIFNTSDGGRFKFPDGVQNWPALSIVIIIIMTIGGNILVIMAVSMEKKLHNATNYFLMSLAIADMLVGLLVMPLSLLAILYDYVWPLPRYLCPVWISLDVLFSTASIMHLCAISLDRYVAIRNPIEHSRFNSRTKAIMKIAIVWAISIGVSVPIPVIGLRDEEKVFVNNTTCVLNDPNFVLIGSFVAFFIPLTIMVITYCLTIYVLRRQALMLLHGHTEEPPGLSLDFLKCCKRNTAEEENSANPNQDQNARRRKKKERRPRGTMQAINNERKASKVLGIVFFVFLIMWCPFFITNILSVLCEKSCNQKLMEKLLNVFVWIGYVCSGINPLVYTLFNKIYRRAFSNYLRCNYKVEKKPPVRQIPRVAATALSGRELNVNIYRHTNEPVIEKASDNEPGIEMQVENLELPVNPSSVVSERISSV
The experiment can be described thus: Serotonin 5-HT2C radioligand binding ([3H]Mesulergine). To be noted: read-out: Inhibition of ligand binding, Serotonin 5-HT2C (percent inhibition of specific binding); for inhibition at 1 µM: compound at 1 μM; for inhibition at 0.1 µM: compound at 0.1 μM. The method in brief:
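Compounds tested at 1 μM or lower (1% DMSO vehicle) for displacement of 1 nM [3H]Mesulergine over 60 min at 25° C. Specific binding determined by filtration counting, with 1 μM Mianserin defining non-specific binding; values are percent inhibition.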

The target in experiment [2] is human recombinant serotonin (5-Hydroxytryptamine) 5-HT7 receptor (Homo sapiens, UniProt P34969). The experiment can be described thus: Serotonin 5-HT7 radioligand binding ([3H]LSD). To be noted: compound at 1 μM; for inhibition at 1 µM: read-out: Inhibition of ligand binding, Serotonin 5-HT7 (percent inhibition of specific binding). The source says:
Receptor proteins were filtered and washed, the filters were then counted to determine [^3H]LSD specifically bound.

In experiment [3] the target is T2, human recombinant serotonin (5-Hydroxytryptamine) 5-HT6 receptor (Homo sapiens, UniProt P50406).
T2 construct: expressed in transfected cells; host or cells: human HeLa cells
Kind of experiment: Serotonin 5-HT6 radioligand binding ([3H]LSD). To be noted: for inhibition at 1 µM / inhibition at 0.1 µM: read-out: Inhibition of ligand binding, Serotonin 5-HT6 (percent inhibition of specific binding); for inhibition at 0.1 µM: compound at 0.1 μM. As to the method:
Compounds of the invention were incubated with 1.5 nM [3H]Lysergic acid diethylamide (LSD) for 120 min. at 37° C. […] Receptor proteins were filtered and washed, the filters were then counted to determine [3H]LSD specifically bound. Compounds were screened at 1 μM or lower, using 1% DMSO as vehicle. Biochemical assay results are presented as the percent inhibition of specific binding in Table 10.

Experiment [4] addresses T3, human recombinant serotonin (5-Hydroxytryptamine) 5-HT2A receptor (Homo sapiens, UniProt P28223).
T3 construct: expressed in transfected cells; host or cells: Chinese hamster ovary (CHO-K1) cells
The experiment can be described thus: Serotonin 5-HT2A radioligand binding ([3H]Ketanserin). To be noted: for inhibition at 1 µM: read-out: Inhibition of ligand binding, Serotonin 5-HT2A (percent inhibition of specific binding), compound at 1 μM; for inhibition at 0.1 µM: read-out: Inhibition of ligand binding, Serotonin 5-HT2A (percent inhibition of specific binding), compound at 0.1 μM. The method, then:
Compounds of the invention were incubated with 0.5 nM [^3H]Ketanserin for 60 min. at 25° C. Non-specific binding was estimated in the presence of 1 μM Mianserin. Receptor proteins were filtered and washed, the filters were then counted to determine [^3H]Ketanserin specifically bound.

Experiment [5] deals with T4, human recombinant adrenergic α1D receptor (Homo sapiens, UniProt P25100).
T4 construct: expressed in transfected cells; host or cells: human embryonic kidney (HEK-293) cells
T4 sequence (P25100 1-572): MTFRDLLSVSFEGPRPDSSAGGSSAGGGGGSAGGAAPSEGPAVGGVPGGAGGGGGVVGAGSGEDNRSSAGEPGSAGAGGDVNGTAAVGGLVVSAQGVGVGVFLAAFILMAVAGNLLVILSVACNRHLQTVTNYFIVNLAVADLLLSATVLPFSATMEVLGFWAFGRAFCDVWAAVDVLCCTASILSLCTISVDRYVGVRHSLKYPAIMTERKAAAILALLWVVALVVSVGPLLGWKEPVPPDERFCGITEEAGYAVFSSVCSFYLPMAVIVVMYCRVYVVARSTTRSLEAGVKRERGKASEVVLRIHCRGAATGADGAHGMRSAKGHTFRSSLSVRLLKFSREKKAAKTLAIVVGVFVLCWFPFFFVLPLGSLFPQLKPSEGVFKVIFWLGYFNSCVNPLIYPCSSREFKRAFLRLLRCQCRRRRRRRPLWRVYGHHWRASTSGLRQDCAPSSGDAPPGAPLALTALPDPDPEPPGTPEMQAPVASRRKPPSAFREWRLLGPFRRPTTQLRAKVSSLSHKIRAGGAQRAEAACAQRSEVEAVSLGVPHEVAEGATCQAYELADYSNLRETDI
Kind of experiment: Adrenergic α1D radioligand binding ([3H]Prozosin). To be noted: compound at 1 μM. The method, then:
Compounds of invention were incubated with 0.6 nM [^3H]Prozosin for 60 min. at 25° C. Non-specific binding was estimated in the presence of 10 μM phentolamine. Receptor proteins were filtered and washed, the filters were then counted to determine [^3H]Prozosin specifically bound. Compounds were screened at 1 μM or lower, using 1% DMSO as vehicle. Biochemical assay results are presented as the percent inhibition of specific binding in Table 9.

Setting [6] is: percent inhibition of specific binding, read-out: Inhibition of ligand binding, Adrenergic α1D.
Where [7] appears, read: read-out: Inhibition of ligand binding, Adrenergic α1D (percent inhibition of specific binding).

The structures appear in SMILES notation. Several values for one entry are separate records, joined by “and”; a condition that tells them apart may be missing. Identical values can stand only once. Like-named read-outs stand apart in the source and are kept apart here.

human recombinant serotonin (5-Hydroxytryptamine) 5-HT7 receptor, sequence (P34969 whole entry): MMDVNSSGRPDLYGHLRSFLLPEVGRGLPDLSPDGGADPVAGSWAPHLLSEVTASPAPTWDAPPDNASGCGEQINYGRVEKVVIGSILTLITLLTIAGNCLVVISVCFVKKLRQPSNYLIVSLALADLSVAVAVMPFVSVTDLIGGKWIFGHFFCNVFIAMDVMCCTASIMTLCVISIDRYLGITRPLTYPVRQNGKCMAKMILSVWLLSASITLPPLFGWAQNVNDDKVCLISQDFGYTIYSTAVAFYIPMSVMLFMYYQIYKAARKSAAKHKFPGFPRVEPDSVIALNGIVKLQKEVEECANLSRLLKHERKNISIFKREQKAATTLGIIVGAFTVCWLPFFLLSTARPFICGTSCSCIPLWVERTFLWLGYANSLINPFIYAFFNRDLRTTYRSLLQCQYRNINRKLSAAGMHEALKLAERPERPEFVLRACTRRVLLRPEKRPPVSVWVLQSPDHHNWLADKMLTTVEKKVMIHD
T3 sequence (P28223 whole entry): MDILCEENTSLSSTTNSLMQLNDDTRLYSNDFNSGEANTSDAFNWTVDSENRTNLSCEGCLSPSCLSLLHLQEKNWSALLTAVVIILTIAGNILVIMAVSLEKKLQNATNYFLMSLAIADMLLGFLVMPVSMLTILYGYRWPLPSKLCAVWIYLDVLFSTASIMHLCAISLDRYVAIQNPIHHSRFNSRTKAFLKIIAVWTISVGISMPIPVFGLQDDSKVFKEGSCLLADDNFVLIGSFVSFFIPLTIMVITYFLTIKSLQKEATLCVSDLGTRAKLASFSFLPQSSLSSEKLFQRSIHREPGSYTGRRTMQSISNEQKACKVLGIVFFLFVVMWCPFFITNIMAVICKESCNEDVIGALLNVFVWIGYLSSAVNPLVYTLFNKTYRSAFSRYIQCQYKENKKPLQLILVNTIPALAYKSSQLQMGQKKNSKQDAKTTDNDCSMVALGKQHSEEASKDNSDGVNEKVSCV
T2 sequence (P50406 whole entry): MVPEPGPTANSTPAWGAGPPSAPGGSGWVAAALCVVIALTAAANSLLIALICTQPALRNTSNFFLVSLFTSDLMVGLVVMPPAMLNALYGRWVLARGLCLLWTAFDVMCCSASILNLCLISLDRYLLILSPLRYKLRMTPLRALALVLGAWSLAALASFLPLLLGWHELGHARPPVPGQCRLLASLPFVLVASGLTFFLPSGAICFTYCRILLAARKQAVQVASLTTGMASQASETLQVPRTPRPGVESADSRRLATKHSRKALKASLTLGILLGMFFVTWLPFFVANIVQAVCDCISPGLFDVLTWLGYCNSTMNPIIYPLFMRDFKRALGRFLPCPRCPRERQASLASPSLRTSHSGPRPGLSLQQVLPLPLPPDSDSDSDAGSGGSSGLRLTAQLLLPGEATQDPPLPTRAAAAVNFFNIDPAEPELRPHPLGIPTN

In the case of `C/C(=C/n1c2c(c3cc(Cl)ccc31)CN(C)CC2)c1ccccc1F` [Compound 212, (Z)-8-chloro-5-(2-(2-fluorophenyl)prop-1-enyl)-2-methyl-2,3,4,5-tetrahydro-1H-pyrido[4,3-b]indole], the inhibition at 1 µM was 104% in experiment [1]; 98% in experiment [2]; 97% in experiment [3] (compound at 1 μM); 91% in experiment [4]; 78% in experiment [5] (setting [6]).

Regarding `COC(=O)c1ccc2c(c1)c1c(n2C#Cc2ccc(F)cc2)CCN(C)C1` [Compound No. 479, methyl 5-((4-fluorophenyl)ethynyl)-2-methyl-2,3,4,5-tetrahydro-1H-pyrido[4,3-b]indole-8-carboxylate], the inhibition at 1 µM in experiment [1] was 69%; in experiment [2], 17%; in experiment [3] (compound at 1 μM), 91%; in experiment [4] it was 78%; in experiment [5] (setting [7]) it was 55%.

`C/C(=C\n1c2c(c3ccccc31)CN(C)CC2)c1ccc(F)cc1` [Compound 205, (E)-5-(2-(4-fluorophenyl)prop-1-enyl)-2-methyl-2,3,4,5-tetrahydro-1H-pyrido[4,3-b]indole]: the inhibition at 0.1 µM came to 96% in experiment [1], 99% in experiment [3] and 104% in experiment [4]. For the same compound, the inhibition at 1 µM in experiment [1] is 100%; in experiment [2], 102%; in experiment [3] (compound at 1 μM), 103%; in experiment [4] it was 97%; in experiment [5] (setting [6]) it was 90%.

Consider `Cc1ccc2c(c1)c1c(n2/C=C(\CC(=O)O)c2ccc(F)cc2)CCN(C)C1` [Compound 209, (E)-4-(2,8-dimethyl-3,4-dihydro-1H-pyrido[4,3-b]indol-5(2H)-yl)-3-(4-fluorophenyl)but-3-enoic acid], for which the inhibition at 1 µM in experiment [1] worked out at 95%; in experiment [2] it was 36%; in experiment [3] (compound at 1 μM), 41%; in experiment [4], 93%; in experiment [5] (setting [6]), 21%.

`Cc1ccc2c(c1)c1c(n2CC(O)c2ccncc2)CCN(C)C1` (stereo not drawn) [Compound 180, 2-(2,8-dimethyl-3,4-dihydro-1H-pyrido[4,3-b]indol-5(2H)-yl)-1-(pyridin-4-yl)ethanol]: the inhibition at 1 µM in experiment [1] was 74%; in experiment [2], 77%; in experiment [3] (compound at 1 μM) it was 72%; in experiment [4], 86%; in experiment [5] (setting [6]), 60%.

On to `CN1CCc2c(c3cc(Cl)ccc3n2/C=C(/c2ccc(F)cc2)C2CC2)C1` [Compound 110, (E)-8-chloro-5-(2-cyclopropyl-2-(4-fluorophenyl)vinyl)-2,3,4,5-tetrahydro-2-methyl-1H-pyrido[4,3-b]indole], for which the inhibition at 0.1 µM in experiment [1] came out at 99%; in experiment [3], 102%; in experiment [4] it was 102%. In addition, the inhibition at 1 µM came to 101% in experiment [1]; 92% in experiment [2]; 104% in experiment [3] (compound at 1 μM); 98% in experiment [4]; 86% in experiment [5] (setting [6]).

For `Cc1ccc2c(c1)c1c(n2C#Cc2ccc(C)nc2)CCN(C)C1` [Compound No. 476, 2,8-dimethyl-5-((6-methylpyridin-3-yl)ethynyl)-2,3,4,5-tetrahydro-1H-pyrido[4,3-b]indole], the inhibition at 1 µM in experiment [1] worked out at 95%; in experiment [2], 90%; in experiment [4], 100%; in experiment [5] (setting [7]), 95%. Moreover, the “Inhibition of ligand binding, Serotonin 5-HT7 (percent inhibition of specific binding)” value in experiment [2] (1 µM) is listed as 92%. For the same compound, in experiment [3] (compound at 1 μM, 1 µM), the “Inhibition of ligand binding, Serotonin 5-HT6 (percent inhibition of specific binding)” value is 64% and 86%.

Turning to `Cc1ccc2c(c1)c1c(n2CC(O)(c2ccc(F)cc2)C2CCCCC2)CCN(C)C1` (stereo not drawn) [Compound 171, 1-cyclohexyl-2-(2,8-dimethyl-3,4-dihydro-1H-pyrido[4,3-b]indol-5(2H)-yl)-1-(4-fluorophenyl)ethanol], the inhibition at 0.1 µM amounted to 51% in experiment [1], 35% in experiment [3] and 60% in experiment [4]. In addition, the inhibition at 1 µM in experiment [1] was 98%; in experiment [2], 42%; in experiment [3] (compound at 1 μM), 93%; in experiment [4] it was 97%; in experiment [5] (setting [6]) it was 49%.

Take `Cc1ccc(C(O)Cn2c3c(c4ccccc42)CN(C)CC3)cc1` (racemic) [Compound 53, racemic-2-(1,2,3,4-tetrahydro-2-methylpyrido[4,3-b]indol-5-yl)-1-p-tolylethanol]: the inhibition at 1 µM in experiment [1] is 82%; in experiment [2], 87%; in experiment [3] (compound at 1 μM) it was 49%; in experiment [4], 100%; in experiment [5] (setting [6]), 55%.

For the compound `C=C(Cn1c2c(c3cc(C)ccc31)CN(C)CC2)c1ccc(F)cc1` [Compound 132, 5-(2-(4-fluorophenyl)allyl)-2,3,4,5-tetrahydro-2,8-dimethyl-1H-pyrido[4,3-b]indole], the inhibition at 1 µM was found to be 96% in experiment [1]; 103% in experiment [2]; 100% in experiment [3] (compound at 1 μM); 100% in experiment [4]; 93% in experiment [5] (setting [6]).

For `Cc1ccc2c(c1)c1c(n2C/C(=C/C(=O)O)c2ccc(F)cc2)CCN(C)C1` [Compound No. 352, (E)-4-(2,8-dimethyl-3,4-dihydro-1H-pyrido[4,3-b]indol-5(2H)-yl)-3-(4-fluorophenyl)but-2-enoic acid], the inhibition at 1 µM amounted to 93% in experiment [1]; 52% in experiment [2]; 32% in experiment [3] (compound at 1 μM); 84% in experiment [4]; 11% in experiment [5] (setting [7]).

Consider `CN1CCc2c(c3cc(Cl)ccc3n2/C=C(/c2ccc(F)cc2)C2CCC2)C1` [Compound 206, (E)-8-chloro-5-(2-cyclobutyl-2-(4-fluorophenyl)vinyl)-2-methyl-2,3,4,5-tetrahydro-1H-pyrido[4,3-b]indole], for which the inhibition at 1 µM came to 98% in experiment [1]; 93% in experiment [2]; 102% in experiment [3] (compound at 1 μM); 98% in experiment [4]; 102% in experiment [5] (setting [6]).

Turning to `CCCCC(O)(Cn1c2c(c3cc(Cl)ccc31)CN(C)CC2)c1ccc(F)cc1` (stereo not drawn) [Compound 178, 1-(8-chloro-2-methyl-3,4-dihydro-1H-pyrido[4,3-b]indol-5(2H)-yl)-2-(4-fluorophenyl)hexan-2-ol], the inhibition at 1 µM in experiment [1] came out at 95%; in experiment [2] it was 48%; in experiment [3] (compound at 1 μM) it was 95%; in experiment [4] it was 98%; in experiment [5] (setting [6]), 46%.
